Source: US20210077559A1, “Treating Autoimmune Disorders with Acetylcholinesterase Inhibitors” (priority 2018, published 2021)

How the values were obtained:
Demodex mites [1] = assay: In vitro Demodex survival time assay; settings: in vitro assay (FIG. 3 and 4)
Description: FIG. 4 summarizes the activity of 10% chloroquine in water relative to a water control on activity against Demodex mites in an in vitro assay, with an LT50 of 31.6 hours for chloroquine compared to 44.8 hours for the water control, illustrating the inactivation effect of chloroquine on Demodex.
Example 4: In vitro efficacy and mite lifetimes: Relative efficacy of various formulations are evaluated with a Demodex survival time experiments. FIG. 3 tabulates Demodex survival time, expressed in terms of LT50 (time at which 50% of Demodex mites are killed) and/or average minutes to death for various active agents.

Demodex mites [2] = settings: dichlorvos 1%, one patient; PCT Pub. No. WO 2015/017328; cited from earlier work

SMILES: CCN(CC)CCCC(C)Nc1ccnc2cc(Cl)ccc12 (centres unmarked) [chloroquine]
- activity against Demodex mites (Demodex mites [1]): has activity against Demodex mites

SMILES: COP(=O)(OC)OC=C(Cl)Cl [dichlorvos]
- remission of Papulopostular Rosacea (PPR) (Demodex mites [2]): complete and continued remission
